Experimental data taken from patent publication US7521533B2, “Tryptase polypeptide and uses thereof” (priority 2002, dated 2009).
“Also recorded” adds a separate entry of the source.

Experiment: Cleavage of trypsin-susceptible pNA chromogenic substrate, reverse-phase HPLC
Type: biochemical
Conditions: for ability to cleave D-Ile-Phe-Lys pNA / ability to cleave N-Benzoyl-Pro-Phe-Arg-pNA / ability to cleave N-p-Tosyl-Gly-Pro-Lys 4-pNA: ~2 μg enzyme, 10 μg substrate, 37° C. 2 hrs, 100 mM HEPES pH7.5 10% glycerol, no exogenous heparin
Description: The enzymatic activity of recombinant δ tryptase was evaluated by testing its ability to cleave a panel of three trypsin-susceptible p-nitroanilide (pNA) chromogenic substrates; N-Benzoyl-Pro-Phe-Arg-pNA, D-Ile-Phe-Lys pNA, and N-p-Tosyl-Gly-Pro-Lys 4-pNA (Sigma-Adrich, St Louis, Mo.) and was compared to that of rαII tryptase, and commercially available native human lung tryptase (ICN, Costa Mesa, Calif.) and recombinant human lung βII tryptase (Promega, Madison, Wis.). Pro-δ tryptase (ie prior to removal of the EK susceptible activation peptide), recombinant EK alone, and buffer alone acted as negative controls. Approximately equal amounts (˜2 μg) of the enzymes were incubated with each substrate (10 μg) at 37° C. for 2 hrs, in 100 mM HEPES pH7.5 10% glycerol (total reaction volume=50 μl), and then analysed by HPLC using a reverse-phase column (4.6×50 […] RP18 Xterra, Waters, Bedford, Mass.). In this initial investigation no exogenous heparin was added. Substrate cleavage was determined by the detection of new peaks representing the separated peptide and nitroanilide moieties. The amount of substrate cleaved was estimated by measuring the area under the HPLC peak that corresponded to the liberated peptide moiety using Delta T Scan software version 2.04 (Delta T Devices Ltd, Cambridge, UK). The retention time of the liberated nitroanilide was constant and was experimentally determined to be 2.67 mins.

Substance | ability to cleave D-Ile-Phe-Lys pNA | ability to cleave N-Benzoyl-Pro-Phe-Arg-pNA | ability to cleave N-p-Tosyl-Gly-Pro-Lys 4-pNA | amount of D-Ile-Phe-Lys pNA substrate cleaved, as much as that cleaved by rβII tryptase (area under HPLC peak of liberated peptide moiety, relative to rβII tryptase)
rβII tryptase: Commercially available recombinant human lung βII tryptase (Promega) [reference compound] | cleave all three substrates | cleave all three substrates | cleave all three substrates | 
rδ tryptase: Recombinant human δ tryptase expressed in bacterial cells, refolded, mature form generated by enterokinase cleavage | able to cleave; also recorded: cleaves | ineffective | ineffective | approximately 12%
pro-rδ tryptase: Recombinant δ tryptase prior to removal of the EK susceptible activation peptide; negative control | No substrate cleavage was detected |  |  | 
